In patent publication US20250281509A1, “SEQUENTIAL HORMONE THERAPY TO IMPROVE SURVIVAL AND ENHANCE RESPONSE TO IMMUNE THERAPY IN MEN WITH PROSTATE CANCER” (The Johns Hopkins University, priority 2021, published 2025):
Several values for one entry are separate records, joined by “and”; a condition that tells them apart may be missing. Equal values may be shown once. Read-outs that look alike come from different tables or passages of the source.

Key:
[1] = system: advanced prostatic carcinoma; settings: cited from earlier work
LNCaP/A-xenografts = experiment: LNCaP xenografts in castrated mice with testosterone implants; assay type: in vivo
From the text: FIG. 3A and FIG. 3B show castrated NOG mice inoculated with LNCaP/A-cells were either exposed to BAT therapy (via an implanted testosterone filled capsule that was placed and removed at two-week intervals) or left in a permanently castrate state (diamond versus box). (FIG. 3A) Evaluation of indicated parameters in LNCaP/A-cells growing in castrate mice vs. castrate mice supplemented with subcutaneous testosterone-filled silastic implants; (FIG. 3B) Immunohistochemical staining for AR in harvested LNCaP/A-xenografts growing in castrate vs. castrate+T-pelleted mice. Blue arrows indicate mitotic figures;
A mechanism for growth inhibition by testosterone in CRPC cells has been recently explored. Beer et al., 2014; Litvinov et al., 2006; Vander Griend et al., 2007. These studies document that the increase in AR expression observed in these cells in the low testosterone environment creates a unique therapeutic vulnerability to selectively kill CRPCs. This observation is based on the fact that AR is involved in DNA relicensing and DNA replication AR must degraded each cell cycle for proper relicensing to occur. Overstabilization of the increased levels of AR observed in CRPC with high dose testosterone prevents complete degradation of AR via the proteasome during mitosis. Beer et al., 2014; Litvinov et al., 2006; Vander Griend et al., 2007. […] Beer et al., 2014. […] In xenografts treated with high dose testosterone, however, the Cell Death Index was approximately 3-fold higher. Beer et al., 2014. More strikingly, the percent of cells staining positive for AR in mitosis was approximately 10-fold higher in cells exposed to high dose testosterone vs. castrate only animals, FIG. 3b.

CRPC [2] = experiment: Post hoc analysis of PSA response to subsequent hormonal therapies post-BAT (pilot study); assay type: in vivo, human; settings: for patients with a PSA decline on second line therapy: after return to castrate testosterone levels post-BAT; for Maximum PSA decline upon secondary HT initiation (%): per subject, secondary HT received post-study after return to castrate T-levels post-BAT; for PSA decline upon re-challenge: subjects who had previously progressed on the same agent
Experimental: As part of the aforementioned pilot study, a post hoc exploratory analysis on the effect of BAT on subsequent hormonal therapies was performed. […] All of the patients had received at least one anti-androgen prior to starting the study, Table 2. PSA response to secondary hormonal therapy after return to castrate T-levels post-BAT.

[3] = system: metastatic castration-resistant prostate cancer; settings: cited from earlier work
CRPC [4] = experiment: RESTORE Phase II study (NCT02090114); assay type: in vivo, human; settings: re-challenge with the agent patients progressed on before BAT
From the text: The RESTORE study (NCT02090114) was an NIH sponsored Phase II study designed to assess the safety and efficacy of BAT in men (n=30 per cohort) with CRPC progressing on enzalutamide (Cohort A) or abiraterone (Cohort B), FIG. 6A. Shah et al., 2004. The primary endpoint of the first part of the study was to assess PSA response to BAT. Secondary endpoints included objective response, safety, and quality of life. The second part of the study was to determine in BAT could re-sensitize patients to repeat exposure to second line therapy that patients were progressing on prior to receiving BAT. Thus, patients progressing on enzalutamide were re-exposed to enzalutamide after BAT and similarly for abiraterone. Both arms of this study met the primary endpoint. PSA50 Response to BAT was 30% in patient's post-enzalutamide and 18% post-abiraterone, FIG. 6B. Shah et al., 2004. […] Overall duration of response to BAT and duration of response to re-exposure was longer in the post-enzalutamide vs. post-abiraterone cohort. The PSA50 response to re-exposure to enzalutamide was 71% vs. only 21% for patients re-exposed to abiraterone, FIG. 6B. Shah et al., 2004. A third cohort was later added (Cohort C) for men progressing on ADT alone. Overall, 90 men were treated on this study over a 4-year period (2014-2018).

ferritin = experiment: Ferritin level by western blot; assay type: cell-based, human; settings: LNCaP cells, 10 μM with 10 nM R1881
Experimental: Cell lysates were prepared either in 1× denaturing lysis buffer (Cell Signaling #9803) or non-denaturing lysis buffer (50 mM HEPES pH 7.4, 150 mM NaCl, 5 mM EDTA, 10% glycerol, 1% Nonidet P-40, and supplemented with phosphatase and protease inhibitors). For denaturing gels, lysates were mixed with Laemmli buffer containing β-mercaptoethanol, boiled for 5 mins and stored at −80° C. until use. Native lysates were mixed with native loading buffer (BioRad), and semi-native lysates were mixed with Laemmli buffer without beta-mercaptoethanol and stored at −80° C. without boiling. Native gels were resolved as described previously, Robitaille et al., 2016; denaturing and semi-native gels were resolved on 4-15% precast polyacrylamide gels (BioRad) followed by transfer to PVDF membrane. Membranes were blocked in 5% nonfat milk in wash buffer (Tris-buffered saline+0.1% Tween-20). After blocking, immunoblotting was performed with primary antibodies overnight at 4° C., followed by incubation with HRP-conjugated secondary antibodies for 1 h at room temperature. Blots were analyzed using the chemiluminescence method. Blots were developed using ECL Western blot detection reagent (GE Healthcare) for highly expressed proteins and Super Signal West Femto (Thermo Fisher) reagent for low expression proteins. Each experiment was repeated at least two to three times.

LNCaP = experiment: Cell death, trypan blue exclusion assay; assay type: cell-based, human; settings: ferrostatin-1 in combination with R1881
Experimental: Cells were stained with 0.4% trypan blue (Sigma) and incubated for 2-3 min at room temperature to allow dead cells to take up the blue stain. Cell viability was measured using an automated cell counter, Cellometer, (Nexcelom). Each experiment was repeated at least three times. Dead cells were calculated from subtracting the percentage of viable cells from 100. Mean percentage of dead cells was plotted on histograms.

[5] = cited from earlier work
early CRPC = settings: cited from earlier work
CRPC [6] = settings: cited from earlier work
CRPC [7] = experiment: Pilot study of BAT plus etoposide in men with CRPC; assay type: in vivo, human
Experimental: Based on the preclinical results and potential mechanisms for growth inhibition that include androgen-induced double strand breaks and stabilization of AR preventing relicensing, a pilot study was conducted to evaluate the efficacy and safety of pharmacologic doses of testosterone to produce high dose testosterone levels in conjunction with oral etoposide in chronically castrated men with rising PSA and CRPC, FIG. 4A. Patients who had been continuously castrate for more than one year with minimal metastatic disease burden (≤5 total bone metastases and ≤10 total sites of metastases) and/or rising PSA were eligible, FIG. 4B. To achieve rapid cycling between high dose and near castrate serum testosterone (i.e., BAT) patients received intramuscular injection of 400 mg testosterone cypionate every 28 days. For the first 3 cycles of therapy patients received BAT plus oral etoposide 100 mg po/day days 1-14 of a 28-day cycle. After 3 cycles PSA response and objective response were assessed. Those patients with a PSA that was declining from peak levels and no objective evidence of disease progression or worsening pain were continued on therapy. Given the toxicity associated with etoposide and the lack of clinical response in an earlier trial, Hussain et al., 1994, patients who responding after 3 cycles of testosterone plus etoposide were continued on testosterone alone based on protocol amendment.

mCPRC = settings: 258 patients previously treated with docetaxel and one or more hormonal therapies; cited from earlier work

Compound: C[C@]12CC[C@H]3[C@@H](CCC4=CC(=O)CC[C@@]43C)[C@@H]1CC[C@@H]2O [testosterone]
- patients with subjective improvement ([1]; long-term castrate group, testosterone for at least one month): 4 of 5
- men with acid phosphatase decline ([1]; longer course of testosterone): 2/5
- Cell Death Index, increase vs castrate (LNCaP/A-xenografts; high dose testosterone vs castrate only): approximately 3 fold
- percent of cells staining positive for AR in mitosis, increase vs castrate (LNCaP/A-xenografts; high dose testosterone vs castrate only animals): approximately 10 fold
- xenograft growth (LNCaP/A-xenografts; testosterone implants, high dose serum T-levels vs castrate only): significant growth inhibition

Compound: CC(O)(CS(=O)(=O)c1ccc(F)cc1)C(=O)Nc1ccc(C#N)c(C(F)(F)F)c1 (centres unmarked) [bicalutamide]
- patients with a PSA decline on second line therapy (CRPC [2]): 1/1
- Maximum PSA decline upon secondary HT initiation (%) (CRPC [2]): −30.8%
- PSA decline upon re-challenge (CRPC [2]): 30.9%

Compound: CC1(C)NC(=O)N(c2ccc([N+](=O)[O-])c(C(F)(F)F)c2)C1=O [nilutamide]
- patients with a PSA decline on second line therapy (CRPC [2]): 1/1
- Maximum PSA decline upon secondary HT initiation (%) (CRPC [2]): −44.3%
- PSA decline upon re-challenge (CRPC [2]): 44.3%

Compound: CC(=O)O[C@H]1CC[C@@]2(C)C(=CC[C@@H]3[C@@H]2CC[C@]2(C)C(c4cccnc4)=CC[C@@H]32)C1 [abiraterone, abiraterone acetate]
- PFS (median), clinical/radiographic ([3]; AR-V7-negative patients): not reached
- PSA response rate ([3]; AR-V7-negative patients): 68.0%
- PSA-PFS (median) ([3]; AR-V7-negative patients): not reached
- PFS (median), clinical/radiographic ([3]; AR-V7-positive patients): 2.3 months
- PSA response rate ([3]; AR-V7-positive patients): 0%
- PSA-PFS (median) ([3]; AR-V7-positive patients): 1.3 months
- PSA50 response to re-exposure post-BAT (CRPC [4]): 21%
- patients with a PSA decline on second line therapy (CRPC [2]): 4/4
- Maximum PSA decline upon secondary HT initiation (%) (CRPC [2]): −94.2% and −92.7% and −88.1% and −63.8%
- patients with >50% PSA decline on second line therapy (CRPC [2]; post-BAT): Four of 4

Compound: CCN(CCO)CCCC(C)Nc1ccnc2cc(Cl)ccc12 (centres unmarked) [hydroxychloroquine]
- degradation of ferritin by SupraT (ferritin): prevented the degradation of ferritin by SupraT

Compound: CCOC(=O)c1ccc(NC2CCCCC2)c(N)c1 [ferrostatin-1]
- SupraT induced cell death (LNCaP): abrogated cell death

Compound: C[C@]12CC[C@H]3[C@@H](CCC4=CC(=O)CC[C@@]43C)[C@@H]1CC[C@@H]2O [transdermal testosterone, testosterone]
- median concentration of testosterone ([5]; 2.5 mg/day transdermal): 305 ng/dL
- median concentration of testosterone ([5]; 5.0 mg/day transdermal): 308 ng/dL
- median concentration of testosterone ([5]; 7.5 mg/day transdermal): 297 ng/dL
- patients with a decrease in PSA (early CRPC; 15 men, 2.5-7.5 mg/day): 20%
- largest decrease in PSA (early CRPC; in vivo): 43%
- toxicities (early CRPC; in vivo): no grade 3 or 4 toxicities were observed with the exception of one person who was taken off study at week 53 for grade 4 cardiac toxicity
- toxicities (CRPC [6]; 7.5 mg/day, 12 patients): no grade 3 or 4 toxicities and no pain flares
- objective responses (CRPC [6]; 7.5 mg/day): No objective responses
- patients with >50% PSA decline (CRPC [6]; of 12 patients): one
- patients with at least 20% PSA declines (CRPC [6]; of 12 patients): Four

Compound: C[C@]12CC[C@H]3[C@@H](CCC4=CC(=O)CC[C@@]43C)[C@@H]1CC[C@@H]2OC(=O)CCC1CCCC1 [testosterone cypionate]
- patients with a decline in PSA from baseline value (CRPC [7]; 400 mg IM every 28 days, oral etoposide in first 3 cycles): Seven of fourteen
- patients developing new bone metastases (CRPC [7]; completing 3 months of therapy): None of the 14 patients
- median time to PSA progression (CRPC [7]; seven patients with PSA decline, range 95 to 454 days): 221 days
- complete response (CR) (CRPC [7]; ten evaluable subjects): 10%
- partial responses (PRs) (CRPC [7]; ten evaluable subjects): 40%
- progressive disease (PD), RECIST-evaluable soft tissue metastases (CRPC [7]; ten evaluable subjects): 20%
- stable disease (CRPC [7]; ten evaluable subjects, median follow up 91 days): 30%

Compound: Pembrolizumab: anti-PD1/PDL1 antibody
- Objective response (mCPRC): < 5%
